Where “and” joins values, the source holds several entries; their conditions need not be identical. Equal values may be shown once.
Columns and labels:
[1] = molecular target: T1, human CatV (Homo sapiens, UniProt O60911); test: Cathepsin inhibition test, CatV; format: biochemical; conditions: Fig. S3 panel c, single replicates
T1 construct: made in house

[2] = test system: SARS-CoV-2; test: Cytopathic effect inhibition assay in LC-HK2 cells; format: cell-based; conditions: for CPE inhibition (%): LC-HK2
[3] = molecular target: T2, human CatK (Homo sapiens, UniProt P43235); test: Cathepsin inhibition test, CatK; format: biochemical; conditions: for Residual activity (Vi/V0): Fig. S3 panel a, single replicates
T2 construct: made in house
T2 sequence (P43235 115-329): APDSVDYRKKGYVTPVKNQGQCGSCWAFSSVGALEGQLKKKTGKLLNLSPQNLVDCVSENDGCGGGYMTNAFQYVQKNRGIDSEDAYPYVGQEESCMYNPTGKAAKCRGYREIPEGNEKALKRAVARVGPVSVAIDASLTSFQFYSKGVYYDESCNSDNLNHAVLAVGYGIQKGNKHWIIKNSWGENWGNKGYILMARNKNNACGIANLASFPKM

[4] = molecular target: T3, SARS-CoV-2 M^pro (Severe acute respiratory syndrome coronavirus 2, UniProt P0DTD1); format: biochemical; conditions: mean with 95% confidence interval; 100 nM M^pro, pH 7.3, 37 °C
T3 construct: Initially reported to target the viral main protease (M^pro); made in house
Procedure: In the enzyme inhibition assays, the initial velocities were calculated from the initial linear portions of their curves, assuming steady-state kinetics. IC50 and Ki values were calculated using GraphPad Prism software. Z-FR-AMC (CatK and CatV), Z-RR-AMC (CatB and CatL), and QS1 or Acetyl-VKLQ-AMC (M^pro) substrates were used to monitor reactions. These measurements were done in four independent duplicates or triplicates, respectively.

[5] = test system: SARS-CoV-2-GFP; test: microbe, parasite or virus in culture; format: cell-based; conditions: mean with standard error, read-out: VERO E6 EC50
[6] = test system: LC-HK2 cells; test: Cell viability assay (CellTiter-Glo), LC-HK2; format: cell-based, human; conditions: for Cell viability (% control): LC-HK2, 72 h, replicates
Procedure: VERO-CCL81 was seeded in 96-well plates at a density of 1.5×10^4 cells/well, while LC-HK2 was seeded at a density of 3×10^4 cells/well, following 24 h incubation at 37 °C and 5% CO2 atmosphere. The cell culture media was replaced by serial dilutions of the compounds and the cell viability was determined 72 h post-treatment via CellTiter-Glo® Luminescent Cell Viability Assay (Promega), following the manufacturer’s instructions. Luminescent signal was recorded using a CLARIOstar multi-mode microplate reader (BMG Labtech, Germany). Graphs were generated using GraphPad Prism software version 8.0 (La Jolla, CA, USA, www.graphpad.com). Samples deemed to be technical failures and extreme outlier were removed.

[7] = inhibitor 0.105 nM, 0.000105 µM
[8] = inhibitor 0.189 nM, 0.000189 µM
[9] = inhibitor 0.612 nM, 0.000612 µM
[10] = inhibitor 1.103 nM, 0.001103 µM
[11] = inhibitor 1.985 nM, 0.001985 µM
[12] = inhibitor 3.572 nM, 0.003572 µM
[13] = inhibitor 11.547 nM, 0.011547 µM

T1 sequence (O60911 114-334): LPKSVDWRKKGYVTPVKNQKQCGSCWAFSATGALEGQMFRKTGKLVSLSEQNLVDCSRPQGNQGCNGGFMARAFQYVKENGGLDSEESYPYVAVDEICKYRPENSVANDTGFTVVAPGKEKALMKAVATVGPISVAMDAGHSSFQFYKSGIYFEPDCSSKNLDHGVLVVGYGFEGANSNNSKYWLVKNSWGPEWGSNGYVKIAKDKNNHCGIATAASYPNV

Question: What does the source list for `CCCC[C@H](NC(=O)[C@H](CC(C)C)NC(=O)OCc1ccccc1)C(O)S(=O)(=O)[O-].[Na+]` (some centres unmarked) [S-Calpeptin]?
Answer: Residual activity (Vi/V0) ([1]; inhibitor 0.010 nM, 10 pM): 0.8982 and 0.9438 and 1.016 and 0.9432 and 0.9838 and 0.9734 and 1.009 and 0.9925; Residual activity (Vi/V0) ([1]; inhibitor 0.018 nM, 18 pM): 0.7063 and 0.8048 and 0.9697 and 0.9452 and 0.965 and 0.9273 and 1.044 and 0.9905; Residual activity (Vi/V0) ([1]; inhibitor 0.032 nM, 32 pM): 0.4743 and 0.664 and 0.9379 and 0.8845 and 0.8627 and 0.9319 and 1.237 and 0.91; Residual activity (Vi/V0) ([1]; inhibitor 0.058 nM, 58 pM): 0.01132 and 0.01674 and 0.9458 and 0.6877 and 0.9713 and 0.8348 and 1.1467 and 0.7642; Residual activity (Vi/V0) [1, 7]: 0.5008 and 0.5002 and 0.8948 and 0.8318 and 0.8983 and 0.7019 and 1.143 and 0.6207; Residual activity (Vi/V0) [1, 8]: 0.2447 and 0.2374 and 0.7712 and 0.7606 and 0.8108 and 0.5224 and 1.02 and 0.4249; Residual activity (Vi/V0) ([1]; inhibitor 0.340 nM, 0.00034 µM): 0.1518 and 0.1386 and 0.6304 and 0.6112 and 0.6332 and 0.3803 and 0.6867 and 0.2117; Residual activity (Vi/V0) [1, 9]: 0.103 and 0.1097 and 0.4478 and 0.4871 and 0.5442 and 0.179 and 0.3919 and 0.1269; Residual activity (Vi/V0) [1, 10]: 0.05798 and 0.06049 and 0.2946 and 0.2993 and 0.3554 and 0.1895 and 0.2004 and 0.05784; Residual activity (Vi/V0) [1, 11]: 0.03342 and 0.03103 and 0.1055 and 0.1184 and 0.07678 and 0.1061 and 0.06687 and 0.038; Residual activity (Vi/V0) [1, 12]: 0.01297 and 0.01099 and 0.0386 and 0.03676 and 0.03768 and 0.02078 and 0.03085 and 0.02157; Residual activity (Vi/V0) ([1]; inhibitor 6.430 nM, 0.00643 µM): 0.008943 and 0.006591 and 0.009607 and 0.008666 and 0.01717 and 0.01084 and 0.01202 and 0.007959; Residual activity (Vi/V0) [1, 13]: 0.003173 and 0.004275 and 0.001602 and 0.001011; EC50 ([2]; LC-HK2, CellTiter-Glo, 72 h post-infection, read-out: CPE inhibition EC50): 70 nM; CPE inhibition (%) ([2]; 0.000000000001 μM (first of two lines so printed, r18)): 0%; CPE inhibition (%) ([2]; 0.000000000001 μM (second line, r19)): 0%; CPE inhibition (%) ([2]; 0.00000000001 μM): 0%; CPE inhibition (%) ([2]; 0.0000000001 μM): 0%; CPE inhibition (%) ([2]; 0.000000001 μM): 0%; CPE inhibition (%) ([2]; 0.00000001 μM, listed as S-Calpepin, 10 fM): 4.03% and 3.04%; CPE inhibition (%) ([2]; 0.0000001 μM, listed as S-Calpepin, 100 fM): 0% and 1.04%; CPE inhibition (%) ([2]; 0.000001 μM, listed as S-Calpepin, 1 pM): 0% and 4.71%; CPE inhibition (%) ([2]; 0.00001 μM, listed as S-Calpepin, 10 pM): 5.52% and 8.92%; CPE inhibition (%) ([2]; 0.0001 μM, listed as S-Calpepin): 7.19% and 6.77%; CPE inhibition (%) ([2]; 0.001 μM, listed as S-Calpepin): 23.15% and 18.35%; CPE inhibition (%) ([2]; 0.01 μM, listed as S-Calpepin): 22.53% and 19.69%; CPE inhibition (%) ([2]; 0.1 μM, listed as S-Calpepin): 56.52% and 41.43%; CPE inhibition (%) ([2]; 1 μM, listed as S-Calpepin): 87.89% and 72.23%; CPE inhibition (%) ([2]; 10 μM, listed as S-Calpepin): 85.17% and 78.3%; Residual activity (Vi/V0) ([3]; inhibitor 0.010 nM, 10 pM): 1.028 and 1.067 and 0.9629 and 0.9414 and 0.9225; Residual activity (Vi/V0) ([3]; inhibitor 0.018 nM, 18 pM): 1.062 and 1.238 and 0.9724 and 0.8624 and 0.8684; Residual activity (Vi/V0) ([3]; inhibitor 0.032 nM, 32 pM): 0.9319 and 1.215 and 0.8238 and 0.889 and 0.8605; Residual activity (Vi/V0) ([3]; inhibitor 0.058 nM, 58 pM): 0.7562 and 0.8292 and 0.7671; Residual activity (Vi/V0) [3, 7]: 1.104 and 0.8757 and 0.7581 and 0.6636 and 0.6847; Residual activity (Vi/V0) [3, 8]: 0.6363 and 0.7129 and 0.6855 and 0.6137 and 0.6926; Residual activity (Vi/V0) ([3]; inhibitor 0.340 nM, 0.00034 µM): 0.4419 and 0.3556 and 0.547 and 0.5599 and 0.6191; Residual activity (Vi/V0) [3, 9]: 0.562 and 0.5894 and 0.4634 and 0.3938 and 0.3707; Residual activity (Vi/V0) [3, 10]: 0.4683 and 0.4274 and 0.3853 and 0.3355 and 0.2949; Residual activity (Vi/V0) [3, 11]: 0.2888 and 0.2948 and 0.2332 and 0.2265 and 0.1772; Residual activity (Vi/V0) [3, 12]: 0.2021 and 0.2433 and 0.1658 and 0.1472 and 0.1161; Residual activity (Vi/V0) ([3]; inhibitor 6.430 nM, 0.00643 µM): 0.1399 and 0.09741 and 0.09721 and 0.03496; Residual activity (Vi/V0) [3, 13]: 0.01107 and 0.1108 and 0.1149 and 0.0689 and 0.02957; Residual activity (Vi/V0) ([3]; inhibitor 20.833 nM, 0.020833 µM): 0.08599 and -0.06715 and 0.04731 and 0.03845 and 0.01885; Residual activity (Vi/V0) ([3]; inhibitor 37.500 nM, 0.0375 µM): -0.05695 and -0.1347 and 0.027 and 0.005377 and -0.00068; Ki ([3]; mean with standard deviation and 95% confidence interval, pH 5.5, 37 °C): 0.05 nM; Ki [4]: 4.7 µM; EC50 [5]: 120 ± 54 nM; cytotoxicity (in words) ([6]; LC-HK2, 72 h): no cytotoxicity up to low micromolar concentrations; Cell viability (% control) ([6]; 0.0006 μM): 101.91 % control and 100.87 % control and 100.74 % control; Cell viability (% control) ([6]; 0.0012 μM): 103 % control and 98.5 % control and 94.37 % control
